Our source for the MIC99, cytotoxicity and selectivity ratio values is ChEMBL document CHEMBL3870331, “Design, development of new synthetic methodology, and biological evaluation of substituted quinolines as new anti-tubercular leads” (Bioorg Med Chem Lett, 2016).

Molecules are shown by their SMILES.

Data set [1] has as its system Mycobacterium tuberculosis. Briefly: Antimycobacterial activity against Mycobacterium tuberculosis H37Rv ATCC 27294 measured after 28 days by MABA method. Type of data set: functional. The conditions noted are these: H37Rv ATCC 27294, 672 h. In general terms: Alamar Blue is a resazurin reagent that responds to reducing activity.
Data set [2] can be described thus: Cytotoxicity against HEK293T cells assessed as inhibition of cell viability at 50 ug/ml after 72 hrs by MTT assay relative to control. Type of data set: toxicity, cell-based, HEK-293T. The conditions noted are these: human, read-out: INH.
A short description of data set [3]: Therapeutic index, ratio of compound cytotoxic activity for HEK293T cells to MIC99 for Mycobacterium tuberculosis H37Rv ATCC 27294. Type of data set: cell-based, HEK-293T. As to conditions: human, read-out: TI.

Regarding `CCOC(=O)c1c(C)nc2ccc(Cl)cc2c1-c1ccccc1`, the MIC99 in data set [1] stood at 76.7 µM.
Consider `c1ccc(-c2cc(-c3ccccc3)c3ccccc3n2)cc1`, for which the MIC99 in data set [1] amounted to 11.1 µM. In data set [2], the cytotoxicity at 72 h, 50 ug/ml came to 18.1%.
The corresponding values for `COC(=O)c1c(C)nc2ccccc2c1-c1ccccc1` are 45.1 µM and 25.6%.
For `Cc1nc2ccccc2c(-c2ccccc2)c1C(=O)c1ccccc1`, in that order: 19.3 µM and 22.1%.
Consider `CCOC(=O)c1c(C)nc2ccccc2c1-c1ccccc1`, for which, in data set [3], the selectivity ratio was above 250. This molecule also showed an MIC99 in data set [1] of 0.69 µM. Moreover, in data set [2], the cytotoxicity at 72 h, 50 ug/ml was determined as 25.6%.
For `CCOC(=O)c1c(C)nc2ccccc2c1C`, the MIC99 in data set [1] turned out to be 109 µM.
In data set [1], `c1ccc(-c2c3c(nc4ccccc24)CCC3)cc1` gave an MIC99 of 25.5 µM. Moreover, the cytotoxicity at 72 h, 50 ug/ml in data set [2] turned out to be 30%.
For `Cc1nc2ccccc2c(-c2ccccc2)c1C(=O)Nc1ccc(F)cc1`, in that order: 16.8 µM and 12.5%.
With `O=C1CC(c2ccccc2)Cc2nc3ccccc3c(-c3ccccc3)c21` (stereo unspecified), the MIC99 in data set [1] came to 35.8 µM.
In the case of `Cc1nc2ccccc2c(-c2ccccc2)c1C(=O)NCc1cccc(F)c1`, in data set [1], the MIC99 was found to be 33.8 µM.
Same read-out and setting: the value for `CC(=O)c1c(C)nc2ccccc2c1-c1ccccc1` was 47.8 µM.
`COc1ccc(NC(=O)c2c(C)nc3ccccc3c2-c2ccccc2)cc1` showed an MIC99 in data set [1] of 8.48 µM. Besides, in data set [2], the cytotoxicity at 72 h, 50 ug/ml stood at 35.2%.
In data set [1], `Cc1nc2ccccc2c(-c2ccccc2)c1C(=O)Nc1ccccn1` yielded an MIC99 of 73.7 µM.
Same read-out and setting: the value for `COC(=O)c1c(C)nc2ccc(Cl)cc2c1-c1ccccc1` was 80.2 µM.
In data set [1], `c1ccc(-c2cc(-c3cccs3)nc3ccccc23)cc1` yielded an MIC99 of 21.8 µM. In data set [2], the cytotoxicity at 72 h, 50 ug/ml was found to be 25.5%.
The corresponding values for `Cc1nc2ccccc2c(-c2ccccc2)c1C(=O)OC(C)(C)C` are 1.22 µM and 13.6%.
For `CC(=O)c1c(C)nc2ccc(Cl)cc2c1-c1ccccc1`, in that order: 10.6 µM and 19.9%.
The corresponding values for `Cc1nc2ccccc2c(-c2ccccc2)c1C(=O)Nc1ccc(Cl)cc1` are 17.5 µM and 16.3%.
Consider `Cc1nc2ccccc2c(-c2ccccc2)c1C(=O)Nc1ccccc1Br`, for which the MIC99 in data set [1] is 15 µM. In addition, the cytotoxicity at 72 h, 50 ug/ml in data set [2] was 15.6%.
The corresponding values for `Cc1nc2ccccc2c(-c2ccccc2)c1C(=O)Nc1ccccc1I` are 3.36 µM and 17.9%.
For the molecule `CC1(C)CC(=O)c2c(nc3ccccc3c2-c2ccccc2)C1`, the MIC99 in data set [1] stood at 20.7 µM. The cytotoxicity at 72 h, 50 ug/ml in data set [2] is 22%.
In data set [1], `COc1ccccc1CNC(=O)c1c(C)nc2ccccc2c1-c1ccccc1` gave an MIC99 above 65.4 µM.
On the same count and under the same terms, the figure for `O=C1CCCc2nc3ccccc3c(-c3ccccc3)c21` is 45.7 µM; for `c1ccc(-c2c3c(nc4ccccc24)CCCCC3)cc1` it is 45.7 µM.
Molecule `c1ccc(-c2cc(-c3ccco3)nc3ccccc23)cc1` had an MIC99 in data set [1] of 5.75 µM. Also, the cytotoxicity at 72 h, 50 ug/ml in data set [2] turned out to be 34%.
For `Cc1nc2ccccc2c(-c2ccccc2)c1C(=O)Nc1cccnc1Cl`, in that order: 16.7 µM and 11.3%.
Molecule `Cc1nc2ccccc2c(-c2ccccc2)c1C(=O)Nc1ccc(Br)cc1` registered an MIC99 in data set [1] of 30.9 µM.
Same read-out and setting: the value for `Cc1nc2ccccc2c(-c2ccccc2)c1C(=O)NCc1ccccc1` was 70.9 µM.
Regarding `Cc1nc2ccccc2c(-c2ccccc2)c1C(=O)NCc1ccccc1Cl`, in data set [1], the MIC99 was determined as 4.03 µM. In data set [2], the cytotoxicity at 72 h, 50 ug/ml turned out to be 13.6%.
`Cc1nc2ccccc2c(-c2ccccc2)c1C(=O)Nc1ccccc1F` had an MIC99 in data set [1] of 35.1 µM.
The same measure, in the same setting: the figure for `Cc1nc2ccccc2c(-c2ccccc2)c1C(=O)NCc1cccc(Cl)c1` is 64.6 µM.
As to `CC1CC(=O)c2c(nc3ccccc3c2-c2ccccc2)C1` (stereo unspecified), in data set [1], the MIC99 turned out to be 21.8 µM. Further, the cytotoxicity at 72 h, 50 ug/ml in data set [2] is 28%.
Turning to `Cc1nc2ccccc2c(-c2ccccc2)c1C(=O)NCc1ccc(C(C)(C)C)cc1`, in data set [1], the MIC99 was 3.82 µM. In addition, in data set [2], the cytotoxicity at 72 h, 50 ug/ml worked out at 35.6%.
For `c1ccc(-c2c3c(nc4ccccc24)CCCCCC3)cc1`, in that order: 10.9 µM and 31.1%.
`c1ccc(-c2c3c(nc4ccccc24)CCCC3)cc1` registered an MIC99 in data set [1] of 48.2 µM.
Turning to `Cc1nc2ccccc2c(-c2ccccc2)c1C(=O)Nc1ccccc1OC(F)(F)F`, the MIC99 in data set [1] was found to be 29.6 µM.
Same read-out and setting: the figure for `Cc1nc2ccccc2c(-c2ccccc2)c1C(=O)Nc1ccccc1Cl` is 33.5 µM.
In data set [1], `Cc1nc2ccc(Cl)cc2c(-c2ccccc2)c1C(=O)c1ccccc1` returned an MIC99 of 8.73 µM. The cytotoxicity at 72 h, 50 ug/ml in data set [2] was determined as 26.1%.
Consider `COc1ccccc1NC(=O)c1c(C)nc2ccccc2c1-c1ccccc1`, for which, in data set [1], the MIC99 stood at 67.9 µM.
`Cc1nc2ccccc2c(-c2ccccc2)c1C(=O)Nc1ccncc1` displayed an MIC99 in data set [1] of 18.4 µM. Besides, the cytotoxicity at 72 h, 50 ug/ml in data set [2] is 12.6%.
The corresponding values for `Cc1ccccc1CNC(=O)c1c(C)nc2ccccc2c1-c1ccccc1` are 8.53 µM and 20.6%.
The corresponding values for `Cc1nc2ccccc2c(-c2ccccc2)c1C(=O)Nc1ccccc1` are 9.23 µM and 25.6%.
On to `CC[C@@H](CO)NCCN[C@@H](CC)CO` [ETHAMBUTOL], for which the MIC99 in data set [1] came out at 1.56 µg/mL.
The same measure, in the same setting: the figure for `NNC(=O)c1ccncc1` [ISONIAZID] is 0.098 µg/mL; for `NC(=O)c1cnccn1` [PYRAZINAMIDE] it is 6.25 µg/mL; for `CO[C@H]1/C=C/O[C@@]2(C)Oc3c(C)c(O)c4c(O)c(c(/C=N/N5CCN(C)CC5)c(O)c4c3C2=O)NC(=O)/C(C)=C\C=C\[C@H](C)[C@H](O)[C@@H](C)[C@@H](O)[C@@H](C)[C@H](OC(C)=O)[C@@H]1C` [RIFAMPIN] it is 0.197 µg/mL.

The MIC99 is the lowest concentration that inhibits either 99% of growth or 99% of the strains tested, depending on the study. A high value points to weaker potency.
